Measurements reported in US20100267561A1, “HERBICIDAL PYRIDAZINONE DERIVATIVES” (priority 2007, published 2010).

Key:
Assay type in all cases: in vivo
[1] = tested on: pigweed (Amaranthus retroflexus); test: Test A pre-/postemergence plant response
Procedure, shortened: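 Seeds in loam soil/sand blend treated preemergence by directed soil spray, with simultaneous postemergence spray on 2–10 cm plants at one- to two-leaf stage; compounds in non-phytotoxic solvent with surfactant. Injury visually rated versus untreated controls after about 10 days in greenhouse, 0 (no effect) to 100 (complete control).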

[2] = tested on: Italian ryegrass (Lolium multiflorum); test: Test C pre-/postemergence plant response
Procedure, shortened: (§1)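 Greenhouse-type test under controlled conditions: soil-surface preemergence treatment of sown seed and foliar postemergence treatment of seedlings 2–18 cm tall. Each compound was in non-phytotoxic solvent with surfactant. Response was rated by eye after 15–25 days, 0 to 100, against controls.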

[3] = tested on: annual bluegrass (Poa annua); test: Test C pre-/postemergence plant response
Procedure, shortened: as §1

[4] = tested on: blackgrass (Alopecurus myosuroides); test: Test C pre-/postemergence plant response
Procedure, shortened: as §1

[5] = tested on: canarygrass (Phalaris minor); test: Test C pre-/postemergence plant response
Procedure, shortened: as §1

[6] = tested on: canola (Brassica rapa); test: Test C pre-/postemergence plant response
Procedure, shortened: as §1

[7] = tested on: downy bromegrass (Bromus tectorum); test: Test C pre-/postemergence plant response
Procedure, shortened: as §1

[8] = tested on: green foxtail (Setaria viridis); test: Test C pre-/postemergence plant response
Procedure, shortened: as §1

[9] = tested on: pigweed (Amaranthus retroflexus); test: Test C pre-/postemergence plant response
Procedure, shortened: as §1

[10] = tested on: spring barley (Hordeum vulgare); test: Test C pre-/postemergence plant response
Procedure, shortened: as §1

[11] = tested on: spring wheat (Triticum aestivum); test: Test C pre-/postemergence plant response
Procedure, shortened: as §1

[12] = tested on: wild mustard (Sinapis arvensis); test: Test C pre-/postemergence plant response
Procedure, shortened: as §1

[13] = tested on: wild oat (Avena fatua); test: Test C pre-/postemergence plant response
Procedure, shortened: as §1

[14] = tested on: windgrass (Apera spica-venti); test: Test C pre-/postemergence plant response
Procedure, shortened: as §1

[15] = tested on: winter barley (Hordeum vulgare); test: Test C pre-/postemergence plant response
Procedure, shortened: as §1

[16] = tested on: winter wheat (Triticum aestivum); test: Test C pre-/postemergence plant response
Procedure, shortened: as §1

[17] = Postemergence, 125 g ai/ha, 0 to 100 scale, 0 no effect, 100 complete control
[18] = Preemergence, 125 g ai/ha, 0 to 100 scale (0 no effect, 100 complete control)
[19] = Preemergence, 8 g ai/ha, scale 0 to 100 (0 no effect, 100 complete control)
[20] = Preemergence, 16 g ai/ha, scale 0 to 100 (0 no effect, 100 complete control)
[21] = Preemergence, 31 g ai/ha, scale 0 to 100 (0 no effect, 100 complete control)
[22] = Preemergence, 62 g ai/ha, scale 0 to 100, 0 no effect, 100 complete control
[23] = Postemergence, 8 g ai/ha, scale 0 to 100, 0 no effect, 100 complete control
[24] = Postemergence, 16 g ai/ha, scale 0 to 100, 0 no effect, 100 complete control
[25] = Postemergence, 31 g ai/ha, scale 0 to 100, 0 no effect, 100 complete control
[26] = Postemergence, 62 g ai/ha, scale 0 to 100, 0 no effect, 100 complete control

Compound: CCc1cc(-c2ccc(Cl)cc2)nn1-c1c(O)cnn(C)c1=O [Compound 21]
- Plant response rating, Pigweed [1, 17]: 0
- Plant response rating, Pigweed ([1]; Postemergence, 500 g ai/ha, 0 to 100 scale, 0 no effect, 100 complete control): 0
- Plant response rating, Pigweed [1, 18]: 0
- Plant response rating, Pigweed ([1]; Preemergence, 500 g ai/ha, 0 to 100 scale (0 no effect, 100 complete control)): 0
- Plant response rating, Ryegrass, Italian [2, 19]: 98
- Plant response rating, Ryegrass, Italian [2, 20]: 100
- Plant response rating, Ryegrass, Italian [2, 21]: 100
- Plant response rating, Ryegrass, Italian [2, 22]: 100
- Plant response rating, Bluegrass [3, 19]: 0
- Plant response rating, Bluegrass [3, 20]: 0
- Plant response rating, Blackgrass [4, 19]: 95
- Plant response rating, Blackgrass [4, 20]: 98
- Plant response rating, Blackgrass [4, 21]: 100
- Plant response rating, Blackgrass [4, 22]: 100
- Plant response rating, Canarygrass [5, 19]: 65
- Plant response rating, Canarygrass [5, 20]: 75
- Plant response rating, Canarygrass [5, 21]: 90
- Plant response rating, Canarygrass [5, 22]: 100
- Plant response rating, Canola [6, 19]: 0
- Plant response rating, Canola [6, 20]: 0
- Plant response rating, Canola [6, 21]: 0
- Plant response rating, Canola [6, 22]: 0
- Plant response rating, Bromegrass, Downy [7, 19]: 0
- Plant response rating, Bromegrass, Downy [7, 20]: 40
- Plant response rating, Bromegrass, Downy [7, 21]: 75
- Plant response rating, Bromegrass, Downy [7, 22]: 95
- Plant response rating, Foxtail, Green [8, 19]: 50
- Plant response rating, Foxtail, Green [8, 20]: 100
- Plant response rating, Foxtail, Green [8, 21]: 100
- Plant response rating, Foxtail, Green [8, 22]: 100
- Plant response rating, Pigweed [9, 19]: 0
- Plant response rating, Pigweed [9, 20]: 0
- Plant response rating, Pigweed [9, 21]: 0
- Plant response rating, Pigweed [9, 22]: 0
- Plant response rating, Barley, Spring [10, 19]: 20
- Plant response rating, Barley, Spring [10, 20]: 35
- Plant response rating, Barley, Spring [10, 21]: 60
- Plant response rating, Barley, Spring [10, 22]: 75
- Plant response rating, Wheat, Spring [11, 19]: 30
- Plant response rating, Wheat, Spring [11, 20]: 40
- Plant response rating, Wheat, Spring [11, 21]: 60
- Plant response rating, Wheat, Spring [11, 22]: 90
- Plant response rating, Mustard, Wild [12, 19]: 0
- Plant response rating, Mustard, Wild [12, 20]: 0
- Plant response rating, Mustard, Wild [12, 21]: 0
- Plant response rating, Mustard, Wild [12, 22]: 0
- Plant response rating, Oat, Wild [13, 19]: 65
- Plant response rating, Oat, Wild [13, 20]: 75
- Plant response rating, Oat, Wild [13, 21]: 95
- Plant response rating, Oat, Wild [13, 22]: 100
- Plant response rating, Windgrass [14, 19]: 100
- Plant response rating, Windgrass [14, 20]: 100
- Plant response rating, Windgrass [14, 21]: 100
- Plant response rating, Windgrass [14, 22]: 100
- Plant response rating, Barley, Winter [15, 19]: 20
- Plant response rating, Barley, Winter [15, 20]: 40
- Plant response rating, Barley, Winter [15, 21]: 50
- Plant response rating, Barley, Winter [15, 22]: 75
- Plant response rating, Wheat, Winter [16, 19]: 0
- Plant response rating, Wheat, Winter [16, 20]: 50
- Plant response rating, Wheat, Winter [16, 21]: 60
- Plant response rating, Wheat, Winter [16, 22]: 95

Compound: CCCc1cc(-c2ccc(Cl)cc2)nn1-c1c(O)cnn(C)c1=O [Compound 43]
- Plant response rating, Pigweed ([1]; Postemergence, 31 g ai/ha, 0 to 100 scale, 0 no effect, 100 complete control): 0
- Plant response rating, Pigweed [1, 17]: 0
- Plant response rating, Pigweed ([1]; Preemergence, 31 g ai/ha, 0 to 100 scale, 0 is no effect, 100 is complete control): 0
- Plant response rating, Pigweed [1, 18]: 0
- Plant response rating, Ryegrass, Italian [2, 23]: 75
- Plant response rating, Ryegrass, Italian [2, 24]: 98
- Plant response rating, Ryegrass, Italian [2, 25]: 100
- Plant response rating, Ryegrass, Italian [2, 26]: 100
- Plant response rating, Ryegrass, Italian [2, 19]: 60
- Plant response rating, Ryegrass, Italian [2, 20]: 98
- Plant response rating, Ryegrass, Italian [2, 21]: 98
- Plant response rating, Ryegrass, Italian [2, 22]: 98
- Plant response rating, Bluegrass [3, 23]: 0
- Plant response rating, Bluegrass [3, 24]: 0
- Plant response rating, Bluegrass [3, 25]: 0
- Plant response rating, Bluegrass [3, 26]: 15
- Plant response rating, Bluegrass [3, 19]: 0
- Plant response rating, Bluegrass [3, 20]: 0
- Plant response rating, Bluegrass [3, 22]: 25
- Plant response rating, Blackgrass [4, 23]: 90
- Plant response rating, Blackgrass [4, 24]: 98
- Plant response rating, Blackgrass [4, 25]: 100
- Plant response rating, Blackgrass [4, 26]: 100
- Plant response rating, Blackgrass [4, 19]: 85
- Plant response rating, Blackgrass [4, 20]: 90
- Plant response rating, Blackgrass [4, 21]: 98
- Plant response rating, Blackgrass [4, 22]: 100
- Plant response rating, Canarygrass [5, 23]: 65
- Plant response rating, Canarygrass [5, 24]: 75
- Plant response rating, Canarygrass [5, 25]: 85
- Plant response rating, Canarygrass [5, 26]: 95
- Plant response rating, Canarygrass [5, 19]: 50
- Plant response rating, Canarygrass [5, 20]: 65
- Plant response rating, Canarygrass [5, 21]: 75
- Plant response rating, Canarygrass [5, 22]: 95
- Plant response rating, Canola [6, 23]: 0
- Plant response rating, Canola [6, 24]: 0
- Plant response rating, Canola [6, 25]: 0
- Plant response rating, Canola [6, 26]: 0
- Plant response rating, Canola [6, 19]: 0
- Plant response rating, Canola [6, 21]: 0
- Plant response rating, Canola [6, 22]: 0
- Plant response rating, Bromegrass, Downy [7, 23]: 0
- Plant response rating, Bromegrass, Downy [7, 24]: 0
- Plant response rating, Bromegrass, Downy [7, 25]: 0
- Plant response rating, Bromegrass, Downy [7, 26]: 75
- Plant response rating, Bromegrass, Downy [7, 19]: 10
- Plant response rating, Bromegrass, Downy [7, 20]: 25
- Plant response rating, Bromegrass, Downy [7, 21]: 40
- Plant response rating, Bromegrass, Downy [7, 22]: 75
- Plant response rating, Foxtail, Green [8, 23]: 90
- Plant response rating, Foxtail, Green [8, 24]: 95
- Plant response rating, Foxtail, Green [8, 25]: 98
- Plant response rating, Foxtail, Green [8, 26]: 98
- Plant response rating, Foxtail, Green [8, 19]: 75
- Plant response rating, Foxtail, Green [8, 20]: 100
- Plant response rating, Foxtail, Green [8, 21]: 100
- Plant response rating, Foxtail, Green [8, 22]: 100
- Plant response rating, Pigweed [9, 23]: 0
- Plant response rating, Pigweed [9, 24]: 0
- Plant response rating, Pigweed [9, 25]: 0
- Plant response rating, Pigweed [9, 26]: 0
- Plant response rating, Pigweed [9, 19]: 0
- Plant response rating, Pigweed [9, 20]: 0
- Plant response rating, Pigweed [9, 21]: 0
- Plant response rating, Pigweed [9, 22]: 20
- Plant response rating, Barley, Spring [10, 23]: 20
- Plant response rating, Barley, Spring [10, 24]: 35
- Plant response rating, Barley, Spring [10, 25]: 50
- Plant response rating, Barley, Spring [10, 26]: 90
- Plant response rating, Barley, Spring [10, 19]: 0
- Plant response rating, Barley, Spring [10, 20]: 20
- Plant response rating, Barley, Spring [10, 21]: 35
- Plant response rating, Barley, Spring [10, 22]: 60
- Plant response rating, Wheat, Spring [11, 23]: 0
- Plant response rating, Wheat, Spring [11, 24]: 15
- Plant response rating, Wheat, Spring [11, 25]: 60
- Plant response rating, Wheat, Spring [11, 26]: 90
- Plant response rating, Wheat, Spring [11, 19]: 0
- Plant response rating, Wheat, Spring [11, 20]: 0
- Plant response rating, Wheat, Spring [11, 21]: 30
- Plant response rating, Wheat, Spring [11, 22]: 65
- Plant response rating, Mustard, Wild [12, 23]: 0
- Plant response rating, Mustard, Wild [12, 24]: 0
- Plant response rating, Mustard, Wild [12, 25]: 0
- Plant response rating, Mustard, Wild [12, 26]: 25
- Plant response rating, Mustard, Wild [12, 19]: 0
- Plant response rating, Mustard, Wild [12, 20]: 0
- Plant response rating, Mustard, Wild [12, 21]: 0
- Plant response rating, Mustard, Wild [12, 22]: 0
- Plant response rating, Oat, Wild [13, 23]: 100
- Plant response rating, Oat, Wild [13, 24]: 100
- Plant response rating, Oat, Wild [13, 25]: 100
- Plant response rating, Oat, Wild [13, 26]: 100
- Plant response rating, Oat, Wild [13, 19]: 35
- Plant response rating, Oat, Wild [13, 20]: 70
- Plant response rating, Oat, Wild [13, 21]: 80
- Plant response rating, Oat, Wild [13, 22]: 98
- Plant response rating, Windgrass [14, 23]: 30
- Plant response rating, Windgrass [14, 24]: 60
- Plant response rating, Windgrass [14, 25]: 60
- Plant response rating, Windgrass [14, 26]: 60
- Plant response rating, Windgrass [14, 20]: 25
- Plant response rating, Windgrass [14, 21]: 80
- Plant response rating, Windgrass [14, 22]: 100
- Plant response rating, Barley, Winter [15, 23]: 5
- Plant response rating, Barley, Winter [15, 24]: 15
- Plant response rating, Barley, Winter [15, 25]: 40
- Plant response rating, Barley, Winter [15, 26]: 80
- Plant response rating, Barley, Winter [15, 19]: 0
- Plant response rating, Barley, Winter [15, 20]: 20
- Plant response rating, Barley, Winter [15, 21]: 50
- Plant response rating, Barley, Winter [15, 22]: 65
- Plant response rating, Wheat, Winter [16, 23]: 5
- Plant response rating, Wheat, Winter [16, 24]: 25
- Plant response rating, Wheat, Winter [16, 25]: 40
- Plant response rating, Wheat, Winter [16, 26]: 65
- Plant response rating, Wheat, Winter [16, 19]: 0
- Plant response rating, Wheat, Winter [16, 20]: 0
- Plant response rating, Wheat, Winter [16, 21]: 20
- Plant response rating, Wheat, Winter [16, 22]: 70
